# According to patent EP3789378A1, “PIPERIDINES OR PIPERIDONES SUBSTITUTED WITH UREA AND HETEROARYL” (Grünenthal GmbH, priority 2019, dated 2021):
# pEC50: −log10 of the molar value. Structures can show the parent of a compound that is named as a salt.
# Molecular target: T1, h FPR2 (Homo sapiens, UniProt P25090)
# T1 construct: expressed in transfected cells
# T1 sequence (P25090 1-351): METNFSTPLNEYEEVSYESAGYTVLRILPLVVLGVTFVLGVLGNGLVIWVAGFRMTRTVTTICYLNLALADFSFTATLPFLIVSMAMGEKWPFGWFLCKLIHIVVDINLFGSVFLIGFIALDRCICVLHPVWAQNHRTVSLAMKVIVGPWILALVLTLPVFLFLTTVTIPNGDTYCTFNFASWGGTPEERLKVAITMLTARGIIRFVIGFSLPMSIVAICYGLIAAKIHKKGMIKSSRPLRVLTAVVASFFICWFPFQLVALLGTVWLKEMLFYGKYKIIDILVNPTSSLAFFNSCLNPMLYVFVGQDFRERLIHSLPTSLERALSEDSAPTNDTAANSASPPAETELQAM
# Assay: Agonistic activity in hFPR2-Aq-CHO cells (FLIPR Calcium 5 fluorescence assay)
# Type: cell-based
# Settings: 11 point half log dilution, final assay concentration from 10µM
# Procedure, shortened: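 hFPR2-Aq-CHO cells were loaded with Calcium 5 dye for 30 min at 37 °C and equilibrated 10 min at room temperature. Compound (11 points, 10 µM to 100 pM final) was added in HBSS/HEPES/probenecid buffer pH 7.4. Fluorescence rise over basal across 5 min, relative to no-compound wells, gave EC50.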
row,pEC50,SMILES
1,8.85,"COc1ccc([C@@H]2CN(CC3CC(OC)C3)CC[C@H]2NC(=O)Nc2ccc(Cl)cc2)nc1 (single isomer, unassigned) [Ex-202, trans-1-(4-chloro-phenyl)-3-[5-methoxy-1'-(3-methoxy-cyclobutylmethyl)-1',2',3',4',5',6'-hexahydro-[2,3']bipyridinyl-4'-yl]-urea]"
2,8.52,"CNCCN1CC[C@@H](NC(=O)Nc2ccc(Cl)cc2)[C@H](c2ccc(OC)cn2)C1 (relative stereo) [Ex-117, trans-1-(4-Chlorophenyl)-3-[3-(5-methoxy-pyridin-2-yl)-1-(2-methylamino-ethyl)-piperidin-4-yl]-urea]"
3,10.05,"COc1ccc([C@@H]2CN(Cc3cnn(S(C)(=O)=O)c3)CC[C@H]2NC(=O)Nc2ccc(Cl)cc2)nc1 (relative stereo) [Ex-125, trans-1-(4-Chlorophenyl)-3-[3-(5-methoxy-pyridin-2-yl)-1-[(1-methylsulfonyl-1H-pyrazol-4-yl)-methyl]-piperidin-4-yl]-urea]"
4,9.00,"COc1ccc([C@@H]2CN(CCC(C)(C)C#N)CC[C@H]2NC(=O)Nc2ccc(Cl)cc2)nc1 (relative stereo) [Ex-144, trans-1-(4-Chlorophenyl)-3-[1-(3-cyano-3-methyl-butyl)-3-(5-methoxy-pyridin-2-yl)-piperidin-4-yl]-urea]"
5,8.70,"COc1ccc([C@@H]2CN(Cc3cnn(C)c3)CC[C@H]2NC(=O)Nc2ccc(C#N)cc2)nc1 (relative stereo) [Ex-146, trans-1-(4-Cyano-phenyl)-3-[3-(5-methoxy-pyridin-2-yl)-1-[(1-methyl-1H-pyrazol-4-yl)-methyl]-piperidin-4-yl]-urea]"
6,7.46,"COc1ccc([C@@H]2CN(C(=O)C3CCNCC3)CC[C@H]2NC(=O)Nc2ccccc2)nc1 (relative stereo) [Ex-151, trans-1-[3-(5-Methoxy-pyridin-2-yl)-1-(piperidine-4-carbonyl)-piperidin-4-yl]-3-phenyl-urea]"
7,8.92,"COc1ccc([C@@H]2CN(CC(C)(C)O)CC[C@H]2NC(=O)Nc2cc(C)ns2)nc1 (relative stereo) [Ex-121, trans-1-[1-(2-Hydroxy-2-methyl-propyl)-3-(5-methoxy-pyridin-2-yl)-piperidin-4-yl]-3-(3-methyl-isothiazol-5-yl)-urea]"
8,7.24,"COCCCN1CC[C@@H](NC(=O)Nc2ccc(Cl)cc2)[C@H](c2ccc(OC)cn2)C1 (single isomer, unassigned) [Ex-192, trans-1-(4-chlorophenyl)-3-[1-(3-methoxypropyl)-3-(5-methoxypyridin-2-yl)piperidin-4-yl]urea]"
9,9.30,"COc1ccc([C@@H]2CN(CC3CCC(OC)CC3)CC[C@H]2NC(=O)Nc2ccc(Cl)cc2)nc1 (relative stereo) [Ex-115, trans-1-(4-chloro-phenyl)-3-[5-methoxy-1'-(4-methoxy-cyclohexylmethyl)-1',2',3',4',5',6'-hexahydro-[2,3']bipyridinyl-4'-yl]-urea]"

# Continued, molecule first:
row,SMILES,pEC50
1,"COc1ccc([C@@H]2CN(CC3COC3)CC[C@H]2NC(=O)Nc2ccc(Cl)cc2)nc1 (relative stereo) [Ex-109, trans-1-(4-chloro-phenyl)-3-(5-methoxy-1'-oxetan-3-ylmethyl-1',2',3',4',5',6'-hexahydro-[2,3']bipyridinyl-4'-yl)-urea]",8.92
2,"O=C(Nc1ccc(Cl)cc1)N[C@@H]1CCN(CC2CCNCC2)C[C@H]1c1ccc(Cl)s1 (single isomer, unassigned) [Ex-84, trans-1-(4-chlorophenyl)-3-[3-(5-chlorothiophen-2-yl)-1-(piperidin-4-ylmethyl)piperidin-4-yl]urea dihydrochloride]",7.48
3,"COc1ccc([C@@H]2CN(Cc3cc(C(F)(F)F)on3)CC[C@H]2NC(=O)Nc2ccc(Cl)cc2)nc1 (single isomer, unassigned) [Ex-37, trans-1-(4-chlorophenyl)-3-[3-(5-methoxypyridin-2-yl)-1-{[5-(trifluoromethyl)-1,2-oxazol-3-yl]methyl}piperidin-4-yl]urea]",9.89
4,"COCCCN1CC[C@@H](NC(=O)Nc2ccc(Cl)cc2)[C@H](c2ccc(OC)cn2)C1 (racemic) [Ex-80, trans-1-(4-chloro-phenyl)-3-[5-methoxy-1'-(3-methoxy-propyl)-1',2',3',4',5',6'-hexahydro-[2,3']bipyridinyl-4'-yl]-urea]",9.05
5,"COc1ccc([C@@H]2CN(Cc3cncc(C)c3)CC[C@H]2NC(=O)Nc2ccc(Cl)cc2)nc1 (relative stereo) [Ex-64, trans-1-(4-chlorophenyl)-3-(3-(5-methoxypyridin-2-yl)-1-((5-methylpyridin-3-yl)methyl)piperidin-4-yl)urea]",10.22
6,"Cc1cc(NC(=O)N[C@@H]2CCN(Cc3cc(C)on3)C[C@H]2c2ccc(Cl)s2)sn1 (single isomer, unassigned) [Ex-49, trans-1-[3-(5-chlorothiophen-2-yl)-1-[(5-methyl-1,2-oxazol-3-yl)methyl]piperidin-4-yl]-3-(3-methyl-1,2-thiazol-5-yl)urea]",9.52
7,"COc1ccc([C@@H]2CN(C(=O)C3CCN(C)CC3)CC[C@H]2NC(=O)Nc2ccc(Cl)cc2)nc1 (racemic) [Ex-89, trans-1-(4-chloro-phenyl)-3-[5-methoxy-1'-(1-methyl-piperidine-4-carbonyl)-1',2',3',4',5',6'-hexahydro-[2,3']bipyridinyl-4'-yl]-urea]",8.70
8,"COc1ccc([C@@H]2CN(C(=O)c3cnccc3C)CC[C@H]2NC(=O)Nc2ccc(Cl)cc2)nc1 (single isomer, unassigned) [Ex-52, trans-1-(4-chlorophenyl)-3-[3-(5-methoxypyridin-2-yl)-1-[(4-methylpyridin-3-yl)carbonyl]piperidin-4-yl]urea]",9.30
9,"COc1ccc([C@@H]2CN(C(=O)c3cnccc3C)CC[C@H]2NC(=O)Nc2ccc(Cl)cc2)nc1 (single isomer, unassigned) [Ex-53, trans-1-(4-chlorophenyl)-3-[3-(5-methoxypyridin-2-yl)-1-[(4-methylpyridin-3-yl)carbonyl]piperidin-4-yl]urea]",7.30
10,"O=C(Nc1ccc(Cl)cc1)N[C@@H]1CCN(Cc2cncc(Cl)c2)C[C@H]1c1ccc(Cl)s1 (relative stereo) [Ex-71, trans-1-(4-chlorophenyl)-3-(1-((5-chloropyridin-3-yl)methyl)-3-(5-chlorothiophen-2-yl)piperidin-4-yl)urea]",8.70
11,"Cc1cc(NC(=O)N[C@@H]2CCN(Cc3ncccn3)C[C@H]2c2ccc(Cl)s2)sn1 (single isomer, unassigned) [Ex-62, trans-1-[3-(5-chlorothiophen-2-yl)-1-(pyrimidin-2-ylmethyl)piperidin-4-yl]-3-(3-methyl-1,2-thiazol-5-yl)urea]",9.70
12,"Cc1cc(NC(=O)N[C@@H]2CCN(Cc3cc(C)on3)C[C@H]2c2ccc(Cl)s2)sn1 (single isomer, unassigned) [Ex-48, trans-1-[3-(5-chlorothiophen-2-yl)-1-[(5-methyl-1,2-oxazol-3-yl)methyl]piperidin-4-yl]-3-(3-methyl-1,2-thiazol-5-yl)urea]",7.14
13,"Cc1cc(NC(=O)N[C@@H]2CCN(c3ccnc(C(F)(F)F)n3)C[C@H]2c2ccc(Cl)cn2)sn1 (relative stereo) [Ex-28, trans-1-[5-chloro-1'-(2-trifluoromethyl-pyrimidin-4-yl)-1',2',3',4',5',6'-hexahydro-[2,3']bipyridinyl-4'-yl]-3-(3-methyl-isothiazol-5-yl)-urea]",7.77
14,"COc1ccc([C@@H]2CN(CCS(C)(=O)=O)CC[C@H]2NC(=O)Nc2ccc(Cl)cc2)nc1 (relative stereo) [Ex-93, trans-1-(4-chloro-phenyl)-3-[1'-(2-methanesulfonyl-ethyl)-5-methoxy-1',2',3',4',5',6'-hexahydro-[2,3']bipyridinyl-4'-yl]-urea]",8.52
15,"COc1ccc([C@@H]2CN(CC(F)F)CC[C@H]2NC(=O)Nc2ccc(C#N)cc2)nc1 (racemic) [Ex-113, trans-1-(4-cyanophenyl)-3-[1-(2,2-difluoroethyl)-3-(5-methoxy-2-pyridyl)-4-piperidyl]urea]",8.92
16,"COc1ccc([C@@H]2CN(c3ccc(F)cc3)CC[C@H]2NC(=O)Nc2cc(C)ns2)cn1 (relative stereo) [Ex-3, trans-1-[1-(4-fluoro-phenyl)-6'-methoxy-1,2,3,4,5,6-hexahydro-[3,3']bipyridinyl-4-yl]-3-(3-methyl-isothiazol-5-yl)-urea]",8.00
17,"COc1ccc([C@H]2CN(Cc3cncc(F)c3)CC[C@@H]2NC(=O)Nc2ccc(Cl)cc2)nc1 (relative stereo) [Ex-68, trans-(4-chlorophenyl)-3-[1-[(5-fluoropyridin-3-yl)methyl]-3-(5-methoxypyridin-2-yl)piperidin-4-yl]urea]",10.05

# Same assay, conditions: agonistic response at 0.1µM
row,activation at 0.1 µM,SMILES
1,25%,"O=C(Nc1ccccc1)N[C@@H]1CCN(CCO)C[C@H]1c1ccc(Cl)cn1 (relative stereo) [Ex-152, trans-1-[3-(5-Chloro-pyridin-2-yl)-1-(2-hydroxy-ethyl)-piperidin-4-yl]-3-phenyl-urea]"
2,17%,"COc1ccc([C@@H]2CN(CC(F)F)CC[C@H]2NC(=O)Nc2ccc(C#N)cc2)nc1 (relative stereo) [Ex-175, trans-1-(4-Cyano-phenyl)-3-[1-(2,2-difluoro-ethyl)-3-(5-methoxy-pyridin-2-yl)-piperidin-4-yl]-urea]"
3,34%,"COc1ccc([C@@H]2CN(C3COC3)CC[C@H]2NC(=O)Nc2ccccc2)nc1 (relative stereo) [Ex-162, trans-1-[3-(5-Methoxy-pyridin-2-yl)-1-(oxetan-3-yl)-piperidin-4-yl]-3-phenyl-urea]"
